These compounds were tested against Sphingosine 1-phosphate receptor 2 (Homo sapiens, UniProt O95136) (assay: Binding affinity to S1PR2 (unknown origin) assessed as dissociation constant measured for 60 secs by surface plasmon resonance assay).
Sphingosine 1-phosphate receptor 2, sequence (O95136 whole entry): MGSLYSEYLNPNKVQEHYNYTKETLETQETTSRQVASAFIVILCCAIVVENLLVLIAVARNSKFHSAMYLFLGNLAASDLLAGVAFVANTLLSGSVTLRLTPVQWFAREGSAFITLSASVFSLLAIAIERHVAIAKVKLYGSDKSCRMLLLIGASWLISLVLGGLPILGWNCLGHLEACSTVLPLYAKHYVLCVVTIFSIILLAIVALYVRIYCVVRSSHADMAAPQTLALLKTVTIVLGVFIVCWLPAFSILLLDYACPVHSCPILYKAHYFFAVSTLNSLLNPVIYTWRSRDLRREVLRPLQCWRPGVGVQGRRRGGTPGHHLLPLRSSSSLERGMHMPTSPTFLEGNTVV

Compound | koff
CCOc1cc(NC(=O)Nc2cc(Cl)nc(Cl)c2)cc(Cl)n1 | 0.102 s⁻¹
O=C(NNc1nc(Nc2ccccc2)nc(N2CCCC2)n1)Nc1cc(Cl)nc(Cl)c1 | 0.133 s⁻¹
CN1CCN(C(=O)Nc2cc(Cl)nc(Cl)c2)CC1 | 0.106 s⁻¹
COc1ccc(-c2ccc3cc(NC(=O)Nc4cc(Cl)nc(Cl)c4)nn3c2)cc1 | 0.112 s⁻¹
CC(C)Oc1cc(NC(=O)Nc2cc(Cl)nc(Cl)c2)cc(Cl)n1 | 0.119 s⁻¹
O=C(Nc1cc(Cl)nc(Cl)c1)Nc1cc2ccc(-c3ccccc3)cn2n1 | 0.201 s⁻¹
COc1c(Cl)cc(NC(=O)Nc2cc(Cl)nc(Cl)c2)cc1Cl | 0.312 s⁻¹
CNc1cc(C)nc(NNC(=O)Nc2cc(Cl)nc(Cl)c2)n1 | 0.236 s⁻¹
Cc1cc(NC(=O)Nc2cc(Cl)nc(Cl)c2)n(C)n1 | 0.177 s⁻¹
COc1cc(NC(=O)Nc2cc(Cl)nc(Cl)c2)cc(Cl)n1 | 0.219 s⁻¹
O=C(Nc1ccnc(Cl)c1)Nc1cc(Cl)nc(Cl)c1 | 0.201 s⁻¹
O=C(Nc1cc(Cl)nc(Cl)c1)Nc1cc2ccccn2n1 | 0.116 s⁻¹
O=C(Nc1cc(Cl)nc(Cl)c1)Nc1cc(Cl)nc(OC2CCCC2)c1 | 0.179 s⁻¹
Cc1nn(C)c2nc(NNC(=O)Nc3cc(Cl)nc(Cl)c3)cc(C(C)C)c12 | 0.161 s⁻¹
Cn1ccc2c(-c3ccccc3)nc(NNC(=O)Nc3cc(Cl)nc(Cl)c3)nc21 | 0.136 s⁻¹
O=C(Nc1cc(Cl)cc(Cl)c1)Nc1cc(Cl)nc(Cl)c1 | 0.116 s⁻¹
O=C(NNc1nc(N2CCOCC2)c2ccn(C3CC3)c2n1)Nc1cc(Cl)nc(Cl)c1 | 0.133 s⁻¹
O=C(Nc1cc(Cl)nc(Cl)c1)Nc1cc(Cl)nc(Cl)c1 | 0.697 s⁻¹
CN(C)c1nc(NNC(=O)Nc2cc(Cl)nc(Cl)c2)nc2c1ccn2C | 0.102 s⁻¹
Cc1cc(NC(=O)Nc2cc(Cl)nc(Cl)c2)cc(C)n1 | 0.146 s⁻¹

Reference: BindingDB's records for doi:10.1016/j.ejmech.2021.113775 (Laboratory For Marine Drugs and Bioproducts of Qingdao …, 2021)
